Here are results for three compounds from ChEMBL document CHEMBL1135887, “Substituted pentacyclic carbazolones as novel muscarinic allosteric agents: synthesis and structure-affinity and cooperativity relationships” (J Med Chem, 2002).

Test [1] deals with T1, Muscarinic acetylcholine receptor M2 (Homo sapiens) (UniProt P08172).
T1 sequence (whole entry): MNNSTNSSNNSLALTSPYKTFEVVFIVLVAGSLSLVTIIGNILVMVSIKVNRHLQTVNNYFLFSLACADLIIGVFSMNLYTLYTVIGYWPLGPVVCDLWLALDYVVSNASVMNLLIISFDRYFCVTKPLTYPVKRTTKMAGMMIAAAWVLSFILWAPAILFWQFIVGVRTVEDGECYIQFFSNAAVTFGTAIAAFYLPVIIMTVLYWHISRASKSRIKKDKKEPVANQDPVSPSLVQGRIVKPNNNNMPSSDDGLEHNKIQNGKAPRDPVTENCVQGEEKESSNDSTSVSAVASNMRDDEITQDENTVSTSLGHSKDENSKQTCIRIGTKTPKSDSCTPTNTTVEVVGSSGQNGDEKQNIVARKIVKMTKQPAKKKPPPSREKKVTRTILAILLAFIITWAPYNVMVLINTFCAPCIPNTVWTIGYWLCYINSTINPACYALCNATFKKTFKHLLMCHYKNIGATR
As to the kind of experiment: Logarithm of affinity (log 1/M) at the muscarinic acetylcholine receptor M2 by using semiquantitative equilibrium and off-rate assay.

The target of test [2] is T1, Muscarinic acetylcholine receptor M2 (Homo sapiens). The experiment in a line: Subtype selectivity and the cooperativity with N-methyl Scopolamine (NMS) at muscarinic M2 receptor; Activity range is 0.81-1.19.
In test [3] the target is T2, Muscarinic acetylcholine receptor M4 (Homo sapiens) (UniProt P08173).
T2 sequence (whole entry): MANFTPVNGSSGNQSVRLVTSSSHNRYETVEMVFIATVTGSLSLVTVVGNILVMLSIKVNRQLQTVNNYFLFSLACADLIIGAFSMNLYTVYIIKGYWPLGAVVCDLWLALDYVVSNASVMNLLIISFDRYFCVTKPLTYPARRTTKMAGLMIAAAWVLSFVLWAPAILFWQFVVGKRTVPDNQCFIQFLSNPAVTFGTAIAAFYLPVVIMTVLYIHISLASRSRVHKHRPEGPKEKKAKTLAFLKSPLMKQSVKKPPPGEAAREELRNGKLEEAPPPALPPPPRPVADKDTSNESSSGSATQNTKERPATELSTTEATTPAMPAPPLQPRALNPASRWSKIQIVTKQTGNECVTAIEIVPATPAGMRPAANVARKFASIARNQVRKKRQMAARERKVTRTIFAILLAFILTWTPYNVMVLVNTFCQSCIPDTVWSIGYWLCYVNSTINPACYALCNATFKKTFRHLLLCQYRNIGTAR
As to the kind of experiment: Logarithm of affinity (log 1/M) at the muscarinic acetylcholine receptor M4 by using semiquantitative equilibrium and off-rate assay.

The target of test [4] is Muscarinic acetylcholine receptor M3 (Homo sapiens) (UniProt P20309). As to the kind of experiment: Subtype selectivity and the cooperativity with N-methyl Scopolamine (NMS) at muscarinic acetylcholine receptor M3; Activity range is 0.2-0.8.
For test [5], the target named is T2, Muscarinic acetylcholine receptor M4 (Homo sapiens). The experiment in a line: Subtype selectivity and the cooperativity with N-methyl Scopolamine (NMS) at Muscarinic acetylcholine receptor M4; Activity range is 0.2-0.8.
Test [6] has as its target Muscarinic acetylcholine receptor M3 (Homo sapiens) (UniProt P20309). The experiment in a line: Logarithm of affinity (log 1/M) at the muscarinic acetylcholine receptor M3 by using semiquantitative equilibrium and off-rate assay.
For test [7], the target named is T3, Muscarinic acetylcholine receptor M1 (Homo sapiens) (UniProt P11229).
T3 sequence (whole entry): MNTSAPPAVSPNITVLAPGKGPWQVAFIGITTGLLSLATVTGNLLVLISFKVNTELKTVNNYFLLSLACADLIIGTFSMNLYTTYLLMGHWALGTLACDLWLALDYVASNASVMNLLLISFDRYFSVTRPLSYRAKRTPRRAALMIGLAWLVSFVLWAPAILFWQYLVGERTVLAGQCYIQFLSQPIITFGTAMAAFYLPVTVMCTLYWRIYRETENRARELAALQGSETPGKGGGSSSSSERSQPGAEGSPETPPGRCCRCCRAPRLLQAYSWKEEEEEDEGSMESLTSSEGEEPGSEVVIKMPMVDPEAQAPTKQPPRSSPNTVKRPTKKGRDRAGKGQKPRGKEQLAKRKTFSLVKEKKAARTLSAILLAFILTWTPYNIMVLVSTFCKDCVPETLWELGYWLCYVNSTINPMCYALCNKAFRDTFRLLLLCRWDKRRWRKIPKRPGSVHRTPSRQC
The experiment in a line: Logarithm of affinity (log 1/M) at the (N-methyl Scopolamine) NMS-liganded muscarinic acetylcholine receptor M1 by using semiquantitative equilibrium and off-rate assay.

Test [8] concerns the target T3, Muscarinic acetylcholine receptor M1 (Homo sapiens). The experiment in a line: Subtype selectivity and the cooperativity with N-methyl Scopolamine (NMS) at Muscarinic acetylcholine receptor M1.
Test [9] has the same target. As to the kind of experiment: Logarithm of affinity (log 1/M) at the free muscarinic acetylcholine receptor M1 by using semiquantitative equilibrium and off-rate assay.
The target of test [10] is T2, Muscarinic acetylcholine receptor M4 (Homo sapiens). The experiment in a line: Logarithm of affinity (log 1/M) at the (N-methyl Scopolamine) NMS-liganded muscarinic acetylcholine receptor M4 by using semiquantitative equilibrium and off-rate assay.
The target in test [11] is T1, Muscarinic acetylcholine receptor M2 (Homo sapiens). As to the kind of experiment: Logarithm of affinity (log 1/M) at the (N-methyl Scopolamine) NMS-liganded muscarinic acetylcholine receptor M2 by using semiquantitative equilibrium and off-rate assay.
The target of test [12] is Muscarinic acetylcholine receptor M3 (Homo sapiens) (UniProt P20309). The experiment in a line: Logarithm of affinity (log 1/M) at the (N-methyl Scopolamine) NMS-liganded muscarinic acetylcholine receptor M3 by using semiquantitative equilibrium and off-rate assay.
Test [13] deals with T1, Muscarinic acetylcholine receptor M2 (Homo sapiens). The experiment in a line: Subtype selectivity and the cooperativity with N-methyl Scopolamine (NMS) at Muscarinic acetylcholine receptor M2.
For test [14], the target named is T2, Muscarinic acetylcholine receptor M4 (Homo sapiens). The experiment in a line: Subtype selectivity and the cooperativity with N-methyl Scopolamine (NMS) at Muscarinic acetylcholine receptor M4.
For test [15], the target named is Muscarinic acetylcholine receptor M3 (Homo sapiens) (UniProt P20309). As to the kind of experiment: Subtype selectivity and the cooperativity with N-methyl Scopolamine (NMS) at Muscarinic acetylcholine receptor M3; Activity range is 1.2-3.
For test [16], the target named is T3, Muscarinic acetylcholine receptor M1 (Homo sapiens). As to the kind of experiment: Subtype selectivity and the cooperativity with N-methyl Scopolamine (NMS) at Muscarinic acetylcholine receptor M1; Activity range is 1.2-3.
The target in test [17] is Muscarinic acetylcholine receptor M3 (Homo sapiens) (UniProt P20309). As to the kind of experiment: Subtype selectivity and the cooperativity with N-methyl Scopolamine (NMS) at Muscarinic acetylcholine receptor M3; activity ranges is 0.2-0.8.
Test [18] addresses T2, Muscarinic acetylcholine receptor M4 (Homo sapiens). The experiment in a line: Subtype selectivity and the cooperativity with N-methyl Scopolamine (NMS) at Muscarinic acetylcholine receptor M4; activity range is 0.2-0.8.
Test [19] addresses T1, Muscarinic acetylcholine receptor M2 (Homo sapiens). As to the kind of experiment: Subtype selectivity and the cooperativity with N-methyl Scopolamine (NMS) at Muscarinic acetylcholine receptor M2,activity range is 1.2-3.
In test [20] the target is T3, Muscarinic acetylcholine receptor M1 (Homo sapiens). The experiment in a line: Subtype selectivity and the cooperativity with N-methyl Scopolamine (NMS) at Muscarinic acetylcholine receptor M1,activity range is 0.2-0.8.

Muscarinic acetylcholine receptor M3 (Homo sapiens), sequence (P20309 whole entry, looked up): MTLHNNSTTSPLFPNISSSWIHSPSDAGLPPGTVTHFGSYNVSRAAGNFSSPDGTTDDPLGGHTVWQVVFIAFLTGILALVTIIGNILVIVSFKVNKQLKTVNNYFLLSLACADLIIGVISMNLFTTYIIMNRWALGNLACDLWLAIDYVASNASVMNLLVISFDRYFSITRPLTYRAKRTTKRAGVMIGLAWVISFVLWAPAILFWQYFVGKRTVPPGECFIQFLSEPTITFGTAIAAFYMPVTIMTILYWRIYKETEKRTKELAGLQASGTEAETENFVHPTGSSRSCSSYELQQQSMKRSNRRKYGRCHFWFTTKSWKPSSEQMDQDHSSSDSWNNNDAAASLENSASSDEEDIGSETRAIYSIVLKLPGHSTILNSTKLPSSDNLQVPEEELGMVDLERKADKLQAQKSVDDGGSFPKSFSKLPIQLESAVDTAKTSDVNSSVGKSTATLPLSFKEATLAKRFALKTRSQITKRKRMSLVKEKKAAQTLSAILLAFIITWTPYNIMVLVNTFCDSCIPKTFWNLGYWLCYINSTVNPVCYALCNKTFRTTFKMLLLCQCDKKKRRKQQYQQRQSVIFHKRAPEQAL

Consider `COC(=O)c1ccc2c(c1)c1c3c(cc4c1n2C(=O)CC4)CNCC3`, for which the Log 1/M in [1] is 6.44; in test [3], 5.55; in [6], 5.64; in [7] it was 5.62; in [9] it was 6.32; in [10], 6. Moreover, the values for the Log 1/M in test [11] and in [12] were 6.43 and 5.09, respectively. Also, the Cooperativity in [2] was 1.19; in [4], 0.8; in [5], 0.8; in test [8], less than 0.2.
For `COc1cc2c3c4c(cc5c3n(c2cc1OC)C(=O)CC5)CCNC4`, the Log 1/M in test [1] was 6.28; in test [3], 5.9; in [6], 5.19; in test [7] it was 6.44; in test [9], 6.19; in test [10], 6.57. Also, the Log 1/M worked out at 6.97 in [11] and 5.53 in test [12]. Further, the Cooperativity is greater than 3 in test [13], greater than 3 in test [14], 3 in test [15] and 3 in test [16].
For `O=C1CCc2cc3c(c4c5cc6c(cc5n1c24)OCO6)CCNC3`, the Log 1/M in test [1] amounted to 6.18; in [3], 5.29; in test [6] it was 5.61; in test [7], 5.99; in test [9] it was 6.06; in [10], 5.73. In addition, the Log 1/M in [11] was 6.31; in [12] it was 5.06. For the same compound, the Cooperativity was determined as 0.8 in [17], 0.8 in test [18], 3 in test [19] and 0.8 in [20].
